Our source for the EC50 values is patent publication US20240228504A1, “SUBSTITUTED TRICYCLIC AMIDES, ANALOGUES THEREOF, AND METHODS USING SAME” (Arbutus Biopharma Corporation, priority 2020, published 2024).

Molecules are shown by their SMILES.

The first assay relates to HBV rcDNA in HepDE19 cells. Kind of assay: HepDE19 assay with bDNA quantitation of HBV rcDNA. The class given is cell-based, hepatitis B virus. The conditions noted are these: HepDE19 assay, inhibition of rcDNA formation, bDNA quantitation; read-out: DE-19bDNA EC50.
The term EC50 denotes the concentration needed to bring the measured effect to its halfway point. For the compound `CCc1cc(F)cc2[nH]c(C(=O)N(C)C3COCc4[nH]c(=O)c5cc(F)ccc5c43)cc12` (single isomer, unassigned) [Compound 394, 4-Ethyl-6-fluoro-N-(8-fluoro-6-oxo-1,4,5,6-tetrahydro-2H-pyrano[3,4-c]isoquinolin-1-yl)-N-methyl-1H-indole-2-carboxamide], the EC50 was found to be 460 nM.

As to `CN(C(=O)c1cc2cc(C#N)ccc2[nH]1)C1COCc2[nH]c(=O)c3cc(F)ccc3c21` (single isomer, unassigned) [Compound 397, 5-Cyano-N-(8-fluoro-6-oxo-1,4,5,6-tetrahydro-2H-pyrano[3,4-c]isoquinolin-1-yl)-N-methyl-1H-indole-2-carboxamide], the EC50 worked out at 17000 nM.

On to `CN(C(=O)c1cc2cc(C#N)ccc2[nH]1)C1COCc2[nH]c(=O)c3cc(F)ccc3c21` (single isomer, unassigned) [Compound 398, 5-Cyano-N-(8-fluoro-6-oxo-1,4,5,6-tetrahydro-2H-pyrano[3,4-c]isoquinolin-1-yl)-N-methyl-1H-indole-2-carboxamide], for which the EC50 came out at 270 nM.

As to `CN(C(=O)c1cc2c(C#N)cc(F)cc2[nH]1)C1CNCc2[nH]c(=O)c3cc(F)c(F)cc3c21` (single isomer, unassigned) [Compound 399, 4-Cyano-N-(8,9-difluoro-6-oxo-1,2,3,4,5,6-hexahydrobenzo[c][1,7]naphthyridin-1-yl)-6-fluoro-N-methyl-1H-indole-2-carboxamide], the EC50 came to 3800 nM.

Take `CN(C(=O)c1cc2c(C#N)cc(F)cc2[nH]1)C1CNCc2[nH]c(=O)c3cc(F)c(F)cc3c21` (single isomer, unassigned) [Compound 400, 4-Cyano-N-(8,9-difluoro-6-oxo-1,2,3,4,5,6-hexahydrobenzo[c][1,7]naphthyridin-1-yl)-6-fluoro-N-methyl-1H-indole-2-carboxamide]: the EC50 came out at 90 nM.

Regarding `CCc1cc(F)cc2[nH]c(C(=O)N(C)C3CNCc4[nH]c(=O)c5cc(F)c(F)cc5c43)cc12` (single isomer, unassigned) [Compound 401, N-(8,9-Difluoro-6-oxo-1,2,3,4,5,6-hexahydrobenzo[c][1,7]naphthyridin-1-yl)-4-ethyl-6-fluoro-N-methyl-1H-indole-2-carboxamide], the EC50 is 2500 nM.

As to `CCc1cc(F)cc2[nH]c(C(=O)N(C)C3CNCc4[nH]c(=O)c5cc(F)c(F)cc5c43)cc12` (single isomer, unassigned) [Compound 402, N-(8,9-Difluoro-6-oxo-1,2,3,4,5,6-hexahydrobenzo[c][1,7]naphthyridin-1-yl)-4-ethyl-6-fluoro-N-methyl-1H-indole-2-carboxamide], the EC50 worked out at 20 nM.

On to `CN(C(=O)c1cnc(C(F)(F)F)c(F)c1)C1COCc2[nH]c(=O)c3cc(F)ccc3c21` (single isomer, unassigned) [Compound 414, 5-Fluoro-N-(8-fluoro-6-oxo-1,4,5,6-tetrahydro-2H-pyrano[3,4-c]isoquinolin-1-yl)-N-methyl-6-(trifluoromethyl)nicotinamide], for which the EC50 was determined as 170 nM.

As for `CN(C(=O)c1cc2sccc2[nH]1)C1CNCc2[nH]c(=O)c3cc(F)c(F)cc3c21` (single isomer, unassigned) [Compound 420, N-(8,9-Difluoro-6-oxo-1,2,3,4,5,6-hexahydrobenzo[c][1,7]naphthyridin-1-yl)-N-methyl-4H-thieno[3,2-b]pyrrole-5-carboxamide], the EC50 was 660 nM.

Regarding `CN(C(=O)c1cc2sccc2[nH]1)C1CNCc2[nH]c(=O)c3cc(F)c(F)cc3c21` (single isomer, unassigned) [Compound 421, N-(8,9-Difluoro-6-oxo-1,2,3,4,5,6-hexahydrobenzo[c][1,7]naphthyridin-1-yl)-N-methyl-4H-thieno[3,2-b]pyrrole-5-carboxamide], the EC50 is 40 nM.

With `Cc1cccc2[nH]c(C(=O)N(C)C3COCc4[nH]c(=O)c5cc(F)ccc5c43)cc12` (single isomer, unassigned) [Compound 422, N-(8-Fluoro-6-oxo-1,4,5,6-tetrahydro-2H-pyrano[3,4-c]isoquinolin-1-yl)-N,4-dimethyl-1H-indole-2-carboxamide], the EC50 was found to be 1200 nM.

Consider `Cc1cccc2[nH]c(C(=O)N(C)C3COCc4[nH]c(=O)c5cc(F)ccc5c43)cc12` (single isomer, unassigned) [Compound 423, N-(8-Fluoro-6-oxo-1,4,5,6-tetrahydro-2H-pyrano[3,4-c]isoquinolin-1-yl)-N,4-dimethyl-1H-indole-2-carboxamide], for which the EC50 turned out to be 10 nM.

As to `CN(C(=O)c1cc2c(Cl)cccc2[nH]1)C1COCc2[nH]c(=O)c3cc(F)ccc3c21` (single isomer, unassigned) [Compound 424, 4-Chloro-N-(8-fluoro-6-oxo-1,4,5,6-tetrahydro-2H-pyrano[3,4-c]isoquinolin-1-yl)-N-methyl-1H-indole-2-carboxamide], the EC50 was 510 nM.

Turning to `CN(C(=O)c1cc2c(Cl)cccc2[nH]1)C1COCc2[nH]c(=O)c3cc(F)ccc3c21` (single isomer, unassigned) [Compound 425, 4-Chloro-N-(8-fluoro-6-oxo-1,4,5,6-tetrahydro-2H-pyrano[3,4-c]isoquinolin-1-yl)-N-methyl-1H-indole-2-carboxamide], the EC50 was 20 nM.

Take `CN(C(=O)c1cc2c(C(F)F)cccn2c1)C1CNCc2[nH]c(=O)c3cc(F)c(F)cc3c21` (single isomer, unassigned) [Compound 430, N-(8,9-Difluoro-6-oxo-1,2,3,4,5,6-hexahydrobenzo[c][1,7]naphthyridin-1-yl)-8-(difluoromethyl)-N-methylindolizine-2-carboxamide]: the EC50 came out at 6300 nM.

On to `CN(C(=O)c1cc2c(C(F)F)cccn2c1)C1CNCc2[nH]c(=O)c3cc(F)c(F)cc3c21` (single isomer, unassigned) [Compound 431, N-(8,9-Difluoro-6-oxo-1,2,3,4,5,6-hexahydrobenzo[c][1,7]naphthyridin-1-yl)-8-(difluoromethyl)-N-methylindolizine-2-carboxamide], for which the EC50 is 10 nM.

As to `CN(C(=O)c1cc2cccc(C(F)F)n2c1)C1CNCc2[nH]c(=O)c3cc(F)c(F)cc3c21` (single isomer, unassigned) [Compound 432, N-(8,9-Difluoro-6-oxo-1,2,3,4,5,6-hexahydrobenzo[c][1,7]naphthyridin-1-yl)-5-(difluoromethyl)-N-methylindolizine-2-carboxamide], the EC50 came out at 23000 nM.

Regarding `CN(C(=O)c1cc2cccc(C(F)F)n2c1)C1CNCc2[nH]c(=O)c3cc(F)c(F)cc3c21` (single isomer, unassigned) [Compound 433, N-(8,9-Difluoro-6-oxo-1,2,3,4,5,6-hexahydrobenzo[c][1,7]naphthyridin-1-yl)-5-(difluoromethyl)-N-methylindolizine-2-carboxamide], the EC50 is 50 nM.

For `CN(C(=O)c1cc2c(Cl)cc(F)cc2[nH]1)C1COCc2[nH]c(=O)c3cc(F)ccc3c21` (single isomer, unassigned) [Compound 438, 4-Chloro-6-fluoro-N-(8-fluoro-6-oxo-1,4,5,6-tetrahydro-2H-pyrano[3,4-c]isoquinolin-1-yl)-N-methyl-1H-indole-2-carboxamide], the EC50 was determined as 1700 nM.

Regarding `CN(C(=O)c1cc2c(Cl)cc(F)cc2[nH]1)C1COCc2[nH]c(=O)c3cc(F)ccc3c21` (single isomer, unassigned) [Compound 439, 4-Chloro-6-fluoro-N-(8-fluoro-6-oxo-1,4,5,6-tetrahydro-2H-pyrano[3,4-c]isoquinolin-1-yl)-N-methyl-1H-indole-2-carboxamide], the EC50 was found to be 20 nM.

With `CN(C(=O)c1cc2c(Cl)cccc2[nH]1)C1CNCc2[nH]c(=O)c3cc(F)c(F)cc3c21` (single isomer, unassigned) [Compound 440, 4-Chloro-N-(8,9-difluoro-6-oxo-1,2,3,4,5,6-hexahydrobenzo[c][1,7]naphthyridin-1-yl)-N-methyl-1H-indole-2-carboxamide], the EC50 was determined as 2200 nM.

As for `CN(C(=O)c1cc2c(Cl)cccc2[nH]1)C1CNCc2[nH]c(=O)c3cc(F)c(F)cc3c21` (single isomer, unassigned) [Compound 441, 4-Chloro-N-(8,9-difluoro-6-oxo-1,2,3,4,5,6-hexahydrobenzo[c][1,7]naphthyridin-1-yl)-N-methyl-1H-indole-2-carboxamide], the EC50 was 20 nM.

The assay is the same for the next values; noted with them: Hepatitis B virus, HepDE19, HepDE19 assay, inhibition of rcDNA formation, bDNA quantitation; read-out: DE-19bDNA EC50.
`CN(C(=O)c1cc2cc(S(C)(=O)=O)ccc2[nH]1)C1CNCc2[nH]c(=O)c3cc(F)c(F)cc3c21` (single isomer, unassigned) [Compound 403, N-(8,9-Difluoro-6-oxo-1,2,3,4,5,6-hexahydrobenzo[c][1,7]naphthyridin-1-yl)-N-methyl-5-(methylsulfonyl)-1H-indole-2-carboxamide]: the EC50 was determined as 25000 nM.

In the case of `CN(C(=O)c1cc2cc(C#N)ccc2[nH]1)C1CNCc2[nH]c(=O)c3cc(F)c(F)cc3c21` (single isomer, unassigned) [Compound 406, 5-Cyano-N-(8,9-difluoro-6-oxo-1,2,3,4,5,6-hexahydrobenzo[c][1,7]naphthyridin-1-yl)-N-methyl-1H-indole-2-carboxamide], the EC50 was found to be 190 nM.

For the compound `CN(C(=O)c1cnc(C(F)(F)F)c(Cl)c1)C1CNCc2[nH]c(=O)c3cc(F)c(F)cc3c21` (single isomer, unassigned) [Compound 419, 5-Chloro-N-(8,9-difluoro-6-oxo-1,2,3,4,5,6-hexahydrobenzo[c][1,7]naphthyridin-1-yl)-N-methyl-6-(trifluoromethyl)nicotinamide], the EC50 amounted to 140 nM.

`CN(C(=O)c1cnc(C(F)(F)F)c(F)c1)C1CNCc2[nH]c(=O)c3cc(F)c(F)cc3c21` (single isomer, unassigned) [Compound 435, N-(8,9-Difluoro-6-oxo-1,2,3,4,5,6-hexahydrobenzo[c][1,7]naphthyridin-1-yl)-5-fluoro-N-methyl-6-(trifluoromethyl)nicotinamide]: the EC50 was determined as 260 nM.
